How the values were obtained:
[1] = target: T1, Gamma-aminobutyric acid receptor subunit alpha-1/beta-3/gamma-2 (Rattus norvegicus) (UniProt P18508+P62813+P63079); experiment: Positive allosteric modulation of rat recombinant GABAA alpha1beta3alpha1-gamma2beta3 receptor expressed in Xenopus laevis oocytes assessed as maximal efficacy at -80 mV holding potential at 300 nM in presence of GABA EC1 to 1.5 by two-electrode voltage-clamp assay; format: cell-based; conditions: Oocyte
[2] = target: T2, Gamma-aminobutyric acid receptor subunit alpha-1/alpha-6/beta-3/gamma-2 (Rattus norvegicus) (UniProt P18508+P30191+P62813+P63079); experiment: Positive allosteric modulation of rat recombinant GABAA alpha6beta3alpha1-gamma2beta3 receptor expressed in Xenopus laevis oocytes assessed as maximal efficacy at -80 mV holding potential at 30 nM in presence of GABA EC1 to 1.5 by two-electrode voltage-clamp assay; format: cell-based; conditions: Oocyte
[3] = target: T3, Gamma-aminobutyric acid receptor subunit alpha-6/beta-3/gamma-2 (Rattus norvegicus, UniProt P18508+P30191+P63079); experiment: Positive allosteric modulation of rat recombinant GABAA alpha6beta3alpha6-gamma2beta3 receptor expressed in Xenopus laevis oocytes assessed as increase in GABA-induced current amplitude at -80 mV holding potential under less potent phase in presence of GABA EC1 to 1.5 by two-electrode voltage-clamp assay; format: cell-based, Oocyte
T3 sequence (P18508 whole entry): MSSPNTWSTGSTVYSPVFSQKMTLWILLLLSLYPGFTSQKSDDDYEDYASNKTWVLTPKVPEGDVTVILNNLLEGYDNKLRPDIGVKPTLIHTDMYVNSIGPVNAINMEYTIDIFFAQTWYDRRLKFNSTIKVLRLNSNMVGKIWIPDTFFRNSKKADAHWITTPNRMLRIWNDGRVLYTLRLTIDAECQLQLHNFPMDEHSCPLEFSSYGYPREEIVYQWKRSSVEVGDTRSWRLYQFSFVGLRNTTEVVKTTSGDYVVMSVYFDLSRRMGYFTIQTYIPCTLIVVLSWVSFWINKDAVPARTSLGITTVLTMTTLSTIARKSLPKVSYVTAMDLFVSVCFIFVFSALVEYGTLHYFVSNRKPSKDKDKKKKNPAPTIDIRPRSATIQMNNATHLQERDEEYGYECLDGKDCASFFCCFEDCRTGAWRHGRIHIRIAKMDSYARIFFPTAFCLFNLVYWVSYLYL
T3 sequence (P30191 whole entry): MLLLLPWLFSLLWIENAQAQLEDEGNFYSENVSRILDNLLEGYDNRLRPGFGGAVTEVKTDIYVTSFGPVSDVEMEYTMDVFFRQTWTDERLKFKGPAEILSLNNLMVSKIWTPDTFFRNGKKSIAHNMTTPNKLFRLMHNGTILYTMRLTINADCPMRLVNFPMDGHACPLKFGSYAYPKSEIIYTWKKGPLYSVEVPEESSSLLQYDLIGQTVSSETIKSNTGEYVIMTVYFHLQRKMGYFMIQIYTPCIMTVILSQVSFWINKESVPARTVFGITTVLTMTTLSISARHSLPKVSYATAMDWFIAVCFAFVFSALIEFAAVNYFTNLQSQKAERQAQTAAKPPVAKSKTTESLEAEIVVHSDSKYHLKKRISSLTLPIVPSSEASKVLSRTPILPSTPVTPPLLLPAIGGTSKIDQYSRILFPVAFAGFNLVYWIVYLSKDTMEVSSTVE
T3 sequence (P63079 whole entry): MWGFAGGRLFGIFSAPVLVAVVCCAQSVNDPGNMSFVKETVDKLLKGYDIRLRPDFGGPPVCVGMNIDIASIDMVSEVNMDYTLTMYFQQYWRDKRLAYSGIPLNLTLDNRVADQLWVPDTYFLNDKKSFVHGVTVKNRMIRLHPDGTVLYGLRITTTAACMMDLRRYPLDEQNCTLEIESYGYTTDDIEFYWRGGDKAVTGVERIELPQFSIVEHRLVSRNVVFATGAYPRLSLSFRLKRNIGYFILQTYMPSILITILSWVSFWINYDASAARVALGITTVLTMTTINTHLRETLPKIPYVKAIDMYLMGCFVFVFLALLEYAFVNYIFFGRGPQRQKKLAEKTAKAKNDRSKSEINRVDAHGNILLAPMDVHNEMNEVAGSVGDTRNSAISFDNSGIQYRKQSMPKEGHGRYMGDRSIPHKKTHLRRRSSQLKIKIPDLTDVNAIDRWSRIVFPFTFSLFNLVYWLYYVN

[4] = target: T4, Gamma-aminobutyric acid receptor subunit alpha-6/beta-3/gamma-2 (Rattus norvegicus) (UniProt P18508+P30191+P63079); experiment: Positive allosteric modulation of rat recombinant GABAA alpha6beta3alpha6-gamma2beta3 receptor expressed in Xenopus laevis oocytes assessed as maximal efficacy at -80 mV holding potential at 300 nM in presence of GABA EC1 to 1.5 by two-electrode voltage-clamp assay; format: cell-based; conditions: Oocyte, filed as positive allosteric modulator
[5] = target: T4, Gamma-aminobutyric acid receptor subunit alpha-6/beta-3/gamma-2 (Rattus norvegicus); experiment: Positive allosteric modulation of rat recombinant GABAA alpha6beta3alpha6-gamma2beta3 receptor expressed in Xenopus laevis oocytes assessed as maximal efficacy at -80 mV holding potential at 10 uM in presence of GABA EC1 to 1.5 by two-electrode voltage-clamp assay; format: cell-based; conditions: Oocyte, filed as positive allosteric modulator
[6] = target: T3, Gamma-aminobutyric acid receptor subunit alpha-6/beta-3/gamma-2; experiment: Positive allosteric modulation of rat recombinant GABAA alpha6beta3alpha6-gamma2beta3 receptor expressed in Xenopus laevis oocytes assessed as increase in GABA-induced current amplitude at -80 mV holding potential under more potent phase in presence of GABA EC1 to 1.5 by two-electrode voltage-clamp assay; format: cell-based, Oocyte
[7] = target: T4, Gamma-aminobutyric acid receptor subunit alpha-6/beta-3/gamma-2 (Rattus norvegicus); experiment: Positive allosteric modulation of rat recombinant GABAA alpha6beta3alpha6-gamma2beta3 receptor expressed in Xenopus laevis oocytes assessed as maximal efficacy at -80 mV holding potential at 1 nM in presence of GABA EC1 to 1.5 by two-electrode voltage-clamp assay; format: cell-based; conditions: Oocyte
[8] = target: T1, Gamma-aminobutyric acid receptor subunit alpha-1/beta-3/gamma-2 (Rattus norvegicus); experiment: Positive allosteric modulation of rat recombinant GABAA alpha1beta3alpha1-gamma2beta3 receptor expressed in Xenopus laevis oocytes assessed as maximal efficacy at -80 mV holding potential at 30 uM in presence of GABA EC1 to 1.5 by two-electrode voltage-clamp assay; format: cell-based; conditions: Oocyte
[9] = target: T4, Gamma-aminobutyric acid receptor subunit alpha-6/beta-3/gamma-2 (Rattus norvegicus); experiment: Positive allosteric modulation of rat recombinant GABAA alpha6beta3alpha6-gamma2beta3 receptor expressed in Xenopus laevis oocytes assessed as maximal current at -80 mV holding potential under more potent phase in presence of GABA EC1 to 1.5 by two-electrode voltage-clamp assay relative to control; format: cell-based; conditions: Oocyte, filed as positive allosteric modulator
[10] = target: T1, Gamma-aminobutyric acid receptor subunit alpha-1/beta-3/gamma-2 (Rattus norvegicus); experiment: Positive allosteric modulation of rat recombinant GABAA alpha1beta3alpha1-gamma2beta3 receptor expressed in Xenopus laevis oocytes assessed as maximal efficacy at -80 mV holding potential at 100 nM in presence of GABA EC1 to 1.5 by two-electrode voltage-clamp assay; format: cell-based; conditions: Oocyte
[11] = target: T2, Gamma-aminobutyric acid receptor subunit alpha-1/alpha-6/beta-3/gamma-2 (Rattus norvegicus); experiment: Positive allosteric modulation of rat recombinant GABAA alpha6beta3alpha1-gamma2beta3 receptor expressed in Xenopus laevis oocytes assessed as maximal efficacy at -80 mV holding potential at 100 nM in presence of GABA EC1 to 1.5 by two-electrode voltage-clamp assay; format: cell-based; conditions: Oocyte
[12] = target: T4, Gamma-aminobutyric acid receptor subunit alpha-6/beta-3/gamma-2 (Rattus norvegicus); experiment: Positive allosteric modulation of rat recombinant GABAA alpha6beta3gamma2 receptor expressed in Xenopus laevis oocytes assessed as potentiation of GABA-induced response under more potent current at -80 mV holding potential at 100 nM in presence of GABA EC1 to 1.5 by two-electrode voltage-clamp assay; format: cell-based; conditions: Oocyte, filed as positive allosteric modulator
[13] = target: T2, Gamma-aminobutyric acid receptor subunit alpha-1/alpha-6/beta-3/gamma-2 (Rattus norvegicus); experiment: Positive allosteric modulation of rat recombinant GABAA alpha6beta3alpha1-gamma2beta3 receptor expressed in Xenopus laevis oocytes assessed as maximal efficacy at -80 mV holding potential at 30 uM in presence of GABA EC1 to 1.5 by two-electrode voltage-clamp assay; format: cell-based; conditions: Oocyte, filed as positive allosteric modulator
[14] = target: T4, Gamma-aminobutyric acid receptor subunit alpha-6/beta-3/gamma-2 (Rattus norvegicus); experiment: Positive allosteric modulation of rat recombinant GABAA alpha6beta3alpha6-gamma2beta3 receptor expressed in Xenopus laevis oocytes assessed as maximal efficacy at -80 mV holding potential at 100 nM in presence of GABA EC1 to 1.5 by two-electrode voltage-clamp assay; format: cell-based; conditions: Oocyte, filed as positive allosteric modulator
[15] = target: T4, Gamma-aminobutyric acid receptor subunit alpha-6/beta-3/gamma-2 (Rattus norvegicus); experiment: Positive allosteric modulation of rat recombinant GABAA alpha6beta3alpha6-gamma2beta3 receptor expressed in Xenopus laevis oocytes assessed as maximal efficacy at -80 mV holding potential at 10 nM in presence of GABA EC1 to 1.5 by two-electrode voltage-clamp assay; format: cell-based; conditions: Oocyte
[16] = target: T1, Gamma-aminobutyric acid receptor subunit alpha-1/beta-3/gamma-2 (Rattus norvegicus); experiment: Positive allosteric modulation of rat recombinant GABAA alpha1beta3alpha1-gamma2beta3 receptor expressed in Xenopus laevis oocytes assessed as maximal efficacy at -80 mV holding potential at 30 nM in presence of GABA EC1 to 1.5 by two-electrode voltage-clamp assay; format: cell-based; conditions: Oocyte
[17] = target: T2, Gamma-aminobutyric acid receptor subunit alpha-1/alpha-6/beta-3/gamma-2 (Rattus norvegicus); experiment: Positive allosteric modulation of rat recombinant GABAA alpha6beta3alpha1-gamma2beta3 receptor expressed in Xenopus laevis oocytes assessed as maximal efficacy at -80 mV holding potential at 300 nM in presence of GABA EC1 to 1.5 by two-electrode voltage-clamp assay; format: cell-based; conditions: Oocyte
[18] = target: T4, Gamma-aminobutyric acid receptor subunit alpha-6/beta-3/gamma-2 (Rattus norvegicus); experiment: Positive allosteric modulation of rat recombinant GABAA alpha6beta3alpha6-gamma2beta3 receptor expressed in Xenopus laevis oocytes assessed as maximal efficacy at -80 mV holding potential at 3 uM in presence of GABA EC1 to 1.5 by two-electrode voltage-clamp assay; format: cell-based; conditions: Oocyte, filed as positive allosteric modulator
[19] = target: T4, Gamma-aminobutyric acid receptor subunit alpha-6/beta-3/gamma-2 (Rattus norvegicus); experiment: Positive allosteric modulation of rat recombinant GABAA alpha6beta3gamma2 receptor expressed in Xenopus laevis oocytes assessed as potentiation of GABA-induced response under less potent current at -80 mV holding potential at 30 uM in presence of GABA EC1 to 1.5 by two-electrode voltage-clamp assay; format: cell-based; conditions: Oocyte, filed as positive allosteric modulator
[20] = target: T4, Gamma-aminobutyric acid receptor subunit alpha-6/beta-3/gamma-2 (Rattus norvegicus); experiment: Positive allosteric modulation of rat recombinant GABAA alpha6beta3alpha6-gamma2beta3 receptor expressed in Xenopus laevis oocytes assessed as maximal efficacy at -80 mV holding potential at 30 uM in presence of GABA EC1 to 1.5 by two-electrode voltage-clamp assay; format: cell-based; conditions: Oocyte, filed as positive allosteric modulator
[21] = target: T4, Gamma-aminobutyric acid receptor subunit alpha-6/beta-3/gamma-2 (Rattus norvegicus); experiment: Positive allosteric modulation of rat recombinant GABAA alpha6beta3alpha6-gamma2beta3 receptor expressed in Xenopus laevis oocytes assessed as maximal current under less potent phase in presence of GABA EC1 to 1.5 by two-electrode voltage-clamp assay relative to control; format: cell-based; conditions: Oocyte, filed as positive allosteric modulator
[22] = target: T4, Gamma-aminobutyric acid receptor subunit alpha-6/beta-3/gamma-2 (Rattus norvegicus); experiment: Positive allosteric modulation of rat recombinant GABAA alpha6beta3alpha6-gamma2beta3 receptor expressed in Xenopus laevis oocytes assessed as maximal efficacy at -80 mV holding potential at 30 nM in presence of GABA EC1 to 1.5 by two-electrode voltage-clamp assay; format: cell-based; conditions: Oocyte
[23] = target: T4, Gamma-aminobutyric acid receptor subunit alpha-6/beta-3/gamma-2 (Rattus norvegicus); experiment: Positive allosteric modulation of rat recombinant GABAA alpha6beta3alpha6-gamma2beta3 receptor expressed in Xenopus laevis oocytes assessed as maximal efficacy at -80 mV holding potential at 3 nM in presence of GABA EC1 to 1.5 by two-electrode voltage-clamp assay; format: cell-based; conditions: Oocyte
[24] = target: T4, Gamma-aminobutyric acid receptor subunit alpha-6/beta-3/gamma-2 (Rattus norvegicus); experiment: Positive allosteric modulation of rat recombinant GABAA alpha6beta3alpha6-gamma2beta3 receptor expressed in Xenopus laevis oocytes assessed as maximal efficacy at -80 mV holding potential at 1 uM in presence of GABA EC1 to 1.5 by two-electrode voltage-clamp assay; format: cell-based; conditions: Oocyte, filed as positive allosteric modulator
[25] = target: T4, Gamma-aminobutyric acid receptor subunit alpha-6/beta-3/gamma-2 (Rattus norvegicus); experiment: Positive allosteric modulation of rat recombinant GABAA alpha6beta3gamma2 receptor expressed in Xenopus laevis oocytes assessed as potentiation of GABA-induced response under more potent current at -80 mV holding potential at 30 uM in presence of GABA EC1 to 1.5 by two-electrode voltage-clamp assay; format: cell-based; conditions: Oocyte, filed as positive allosteric modulator

## COc1ccc(-n2nc3c4ccc(C(C)=O)cc4[nH]cc-3c2=O)cc1
[1]
  Efficacy: 1%
[2]
  Efficacy: 3%
[3]
  EC50: 735 µM
[4]
  Efficacy: 67%
[5]
  Efficacy: 205%
[6]
  EC50: 0.05 µM
[7]
  Efficacy: 9%
[8]
  Efficacy: 10%
[9]
  %max: 82%
[10]
  Efficacy: 1%
[11]
  Efficacy: 3%
[12]
  Activity: 62%
[13]
  Efficacy: 338%
[14]
  Efficacy: 52%
[15]
  Efficacy: 27%
[16]
  Efficacy: 1%
[17]
  Efficacy: 11%
[18]
  Efficacy: 127%
[19]
  Activity: 80%
[20]
  Efficacy: 426%
[21]
  %max: 2210%
[22]
  Efficacy: 31%
[23]
  Efficacy: 13%
[24]
  Efficacy: 101%
[25]
  Activity: 280%
